The target of assay [1] is T1, Type-2 angiotensin II receptor (Homo sapiens, UniProt P50052).
T1 sequence (P50052 whole entry): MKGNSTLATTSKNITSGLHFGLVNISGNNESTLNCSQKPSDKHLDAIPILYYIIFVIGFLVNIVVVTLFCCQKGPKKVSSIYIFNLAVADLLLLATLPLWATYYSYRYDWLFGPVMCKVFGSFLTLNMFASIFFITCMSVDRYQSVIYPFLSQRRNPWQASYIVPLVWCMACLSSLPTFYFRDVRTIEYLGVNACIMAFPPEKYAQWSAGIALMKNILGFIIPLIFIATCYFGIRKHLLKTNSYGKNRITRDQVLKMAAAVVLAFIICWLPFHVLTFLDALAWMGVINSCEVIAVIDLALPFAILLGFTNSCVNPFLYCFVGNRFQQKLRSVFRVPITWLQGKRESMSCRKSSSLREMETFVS
Description: Binding affinity to AT2 receptor (unknown origin).

Assay [2] concerns the target T2, Type-1 angiotensin II receptor (Homo sapiens, UniProt P30556).
T2 sequence (P30556 whole entry): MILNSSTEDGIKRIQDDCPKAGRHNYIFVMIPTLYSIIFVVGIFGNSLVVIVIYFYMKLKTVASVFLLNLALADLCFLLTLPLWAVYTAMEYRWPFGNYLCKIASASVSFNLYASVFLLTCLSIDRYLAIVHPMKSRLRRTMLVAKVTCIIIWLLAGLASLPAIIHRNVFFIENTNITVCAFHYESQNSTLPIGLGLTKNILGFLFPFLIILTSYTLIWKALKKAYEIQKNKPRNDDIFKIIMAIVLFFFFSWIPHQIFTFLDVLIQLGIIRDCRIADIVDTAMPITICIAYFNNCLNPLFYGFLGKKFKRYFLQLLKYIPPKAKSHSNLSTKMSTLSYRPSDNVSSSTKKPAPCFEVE
Description: Binding affinity to AT1 receptor (unknown origin).

Some results are limits rather than exact numbers.

A word on the IC50: it is the point on the concentration scale where inhibition reaches its midpoint. High values mean a need for much substance, low ones inhibition by little substance. For the compound `CCCCc1nn(C)c(=O)n1Cc1ccc(-n2cccc2-c2nnn[nH]2)cc1`, the IC50 in assay [1] was > 10000 nM; in assay [2] it was 2.5 nM.

The values are drawn from ChEMBL document CHEMBL3091458, “Design, synthesis, and biological evaluation of 1,2,4-triazole bearing 5-substituted biphenyl-2-sulfonamide derivatives as potential antihypertensive candidates” (Bioorg Med Chem, 2013).
